The supplement of paper PMC10307832

Key:
Experiment in all cases: relative viability (nuclei count vs DMSO), 5 days (fraction); higher = more cells survive
[1] = compound: CN1CCN(CC1)C2=CC(=C(C=C2)NC3=NC(=C(S3)C(=O)C4=C(C=CC=C4Cl)Cl)N)OC [XMD14-99] + O=C(c1cc(Cc2n[nH]c(=O)c3ccccc23)ccc1F)N1CCN(C(=O)C2CC2)CC1 [Olaparib] (partner 8 µM)
Summary of the method: (§1)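 For relative viability, nuclei counts in treated wells were divided by those in vehicle wells. Lung cancer cell lines had been pin-tool dosed in 1536-well plates the day after seeding and cultured for 5 days, then fixed and stained in one step (final 0.05% Triton X-100, 1% formaldehyde, 1 ug/ml Hoechst) and imaged at 4×. Doses were one drug alone or a fixed anchor-drug dose plus five library-drug doses (not always all listed) in √10 steps, and values are duplicate-plate medians.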

[2] = compound: CN1CCN(CC1)C2=CC(=C(C=C2)NC3=NC(=C(S3)C(=O)C4=C(C=CC=C4Cl)Cl)N)OC [XMD14-99] + Nc1nc2[nH]cc(CCc3ccc(C(=O)N[C@@H](CCC(=O)O)C(=O)O)cc3)c2c(=O)[nH]1 [Pemetrexed] (partner 0.2 µM)
Summary of the method: as §1

[3] = compound: N[C@@H]1CCCN(c2c(/C=C3\SC(=O)NC3=O)cccc2-c2ccccc2)C1 [AZD1208] + O=C(CCCCCCC(=O)Nc1ccccc1)NO [Vorinostat] (partner 1 µM)
Summary of the method: as §1

[4] = compound: N[C@@H]1CCCN(c2c(/C=C3\SC(=O)NC3=O)cccc2-c2ccccc2)C1 [AZD1208] + CS(=O)(=O)N1CCN(Cc2cc3nc(-c4cccc5[nH]ncc45)nc(N4CCOCC4)c3s2)CC1 [Pictilisib] (partner 1 µM)
Summary of the method: as §1

LCLC-103H showed a relative viability ([1]; first compound 0.08 µM) of 0.764, a relative viability ([1]; first compound 0.8 µM) of 0.779 and a relative viability ([1]; first compound 2.53 µM) of 0.752. For the same cell line, the relative viability ([1]; first compound 8 µM) was 0.657, the relative viability ([2]; first compound 0.08 µM) was 0.467 and the relative viability ([2]; first compound 0.8 µM) was 0.475. The relative viability ([2]; first compound 2.53 µM) was 0.426, the relative viability ([2]; first compound 8 µM) was 0.468 and the relative viability ([3]; first compound 0.08 µM) was 0.772. For the same cell line, the relative viability ([3]; first compound 0.253 µM) was 0.858, the relative viability ([3]; first compound 0.8 µM) was 0.789 and the relative viability ([3]; first compound 2.53 µM) was 0.613. It also gave a relative viability ([3]; first compound 8 µM) of 0.697, a relative viability ([4]; first compound 0.08 µM) of 0.568 and a relative viability ([4]; first compound 0.253 µM) of 0.614. It also gave a relative viability ([4]; first compound 0.8 µM) of 0.485, a relative viability ([4]; first compound 2.53 µM) of 0.455 and a relative viability ([4]; first compound 8 µM) of 0.448.
Work on LK-2 yielded a relative viability ([1]; first compound 0.08 µM) of 0.751, a relative viability ([1]; first compound 0.8 µM) of 0.591 and a relative viability ([1]; first compound 2.53 µM) of 0.685. The relative viability ([1]; first compound 8 µM) was 0.419, the relative viability ([2]; first compound 0.08 µM) was 0.219 and the relative viability ([2]; first compound 0.8 µM) was 0.247. The relative viability ([2]; first compound 2.53 µM) was 0.258, the relative viability ([2]; first compound 8 µM) was 0.119 and the relative viability ([3]; first compound 0.08 µM) was 0.329. The relative viability ([3]; first compound 0.253 µM) was 0.322, the relative viability ([3]; first compound 0.8 µM) was 0.255 and the relative viability ([3]; first compound 2.53 µM) was 0.302. For the same cell line, the relative viability ([3]; first compound 8 µM) was 0.247, the relative viability ([4]; first compound 0.08 µM) was 0.373 and the relative viability ([4]; first compound 0.253 µM) was 0.349. For the same cell line, the relative viability ([4]; first compound 0.8 µM) was 0.29, the relative viability ([4]; first compound 2.53 µM) was 0.383 and the relative viability ([4]; first compound 8 µM) was 0.266.
LOU-NH91 was tested, and the relative viability ([1]; first compound 0.08 µM) was 0.904, the relative viability ([1]; first compound 0.8 µM) was 0.919 and the relative viability ([1]; first compound 2.53 µM) was 0.891. The relative viability ([1]; first compound 8 µM) was 0.692, the relative viability ([2]; first compound 0.08 µM) was 0.351 and the relative viability ([2]; first compound 0.8 µM) was 0.379. For the same cell line, the relative viability ([2]; first compound 2.53 µM) was 0.319, the relative viability ([2]; first compound 8 µM) was 0.415 and the relative viability ([3]; first compound 0.08 µM) was 0.965. The relative viability ([3]; first compound 0.253 µM) was 0.955, the relative viability ([3]; first compound 0.8 µM) was 0.864 and the relative viability ([3]; first compound 2.53 µM) was 0.838. It also gave a relative viability ([3]; first compound 8 µM) of 0.865, a relative viability ([4]; first compound 0.08 µM) of 0.503 and a relative viability ([4]; first compound 0.253 µM) of 0.485. It also gave a relative viability ([4]; first compound 0.8 µM) of 0.503, a relative viability ([4]; first compound 2.53 µM) of 0.494 and a relative viability ([4]; first compound 8 µM) of 0.517.
LU99A was tested, and the relative viability ([1]; first compound 0.08 µM) was 0.304, the relative viability ([1]; first compound 0.8 µM) was 0.263 and the relative viability ([1]; first compound 2.53 µM) was 0.19. For the same cell line, the relative viability ([1]; first compound 8 µM) was 0.135, the relative viability ([2]; first compound 0.08 µM) was 0.199 and the relative viability ([2]; first compound 0.8 µM) was 0.174. For the same cell line, the relative viability ([2]; first compound 2.53 µM) was 0.191, the relative viability ([2]; first compound 8 µM) was 0.156 and the relative viability ([3]; first compound 0.08 µM) was 0.471. The relative viability ([3]; first compound 0.253 µM) was 0.618, the relative viability ([3]; first compound 0.8 µM) was 0.481 and the relative viability ([3]; first compound 2.53 µM) was 0.467. It also gave a relative viability ([3]; first compound 8 µM) of 0.332, a relative viability ([4]; first compound 0.08 µM) of 0.304 and a relative viability ([4]; first compound 0.253 µM) of 0.294. The relative viability ([4]; first compound 0.8 µM) was 0.289, the relative viability ([4]; first compound 2.53 µM) was 0.35 and the relative viability ([4]; first compound 8 µM) was 0.236.
